From patent US9770026B2, “Substituted pyrimidine compound and uses thereof” (Shenyang Sinochem Agrochemicals R&D Co., Ltd., priority 2012, dated 2017)

Assays:
rice blast = assay: microbe, parasite or virus in culture; format: cell-based; settings: for inhibition at 8.3 ppm: read-out: inhibition rate against rice blast, 8.3 ppm, in vitro; for inhibition at 25 ppm: read-out: inhibition rate against rice blast, 25 ppm, in vitro; for inhibition rate against rice blast: in vitro
corn rust = assay: protectant activity in vivo against corn rust; settings: for pest or weed control at 100 ppm: read-out: protectant activity against corn rust in vivo, 100 ppm; for pest or weed control at 400 ppm: read-out: protectant activity against corn rust in vivo, 400 ppm
[1] = test system: Green peach aphids (Myzus Persicae Sulzer); assay: bioactivity test against green peach aphid, airbrush foliar spray; format: in vivo; settings: for pest or weed control at 10 ppm / pest or weed control at 100 ppm / pest or weed control at 600 ppm: Myzus persicae, foliar, 48 h; for pest or weed control at 10 ppm / pest or weed control at 100 ppm / pest or weed control at 600 ppm / control (test results against green peach aphid): death rate after 48 hrs; for Insecticidal activity against peach aphid (%): contrastive test
Outline: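 Aphids (15-30 per cabbage leaf disc) on moist filter paper were airbrush-sprayed at 10 psi, 0.5 mL, with compound from acetone:methanol (1:1) diluted in water with 0.1% tween 80. Held at 25±1 C, 60±5% RH; survivors counted after 48 hrs to give death rates.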

wheat powdery mildew = assay: protectant activity in vivo against wheat powdery mildew; settings: for pest or weed control at 400 ppm: read-out: protectant activity against wheat powdery mildew in vivo, 400 ppm; for protectant activity against wheat powdery mildew in vivo: 400 ppm
cucumber downy mildew = assay: protectant activity in vivo against cucumber downy mildew; settings: for pest or weed control at 400 ppm: read-out: protectant activity against cucumber downy mildew in vivo, 400 ppm; for control effect against cucumber downy mildew (%): protectant activity
carmine spider mite = assay: bioactivity test against carmine spider mite, airbrush spray; format: in vivo; settings: for pest or weed control at 100 ppm / pest or weed control at 600 ppm: Tetranychus cinnabarinus, 72 h; for pest or weed control at 100 ppm / pest or weed control at 600 ppm / control against carmine spider mite: mortality after 72 hrs; for Insecticidal activity against carmine spider mite (% ): contrastive test
Outline: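 Broadbean seedlings infested with adult mites were sprayed with compound (acetone/methanol stock diluted in 0.1% Tween 80 water) by airbrush at 0.7 kg/cm^2, 0.5 ml. Three replicates were run. Mortality was scored after 72 hrs.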

Diamond back moth = assay: insecticidal activity against diamond back moth, airbrush spray; format: in vivo; settings: for control (test results against diamond back moth): mortality after 72 hrs
Outline: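 Airbrush leaf-disc spray test: both faces of 2 cm cabbage discs received 0.5 ml of test solution at 0.7 kg/cm^2. Solutions were made in acetone:methanol (1:1) and brought to concentration with 0.1% Tween 80 in water. Ten second-instar larvae per disc, triplicates, were held at 25° C and 60˜70% R.H., with mortality recorded at 72 hrs.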

armyworm = assay: bioactivity test against armyworm, airbrush spray; format: in vivo; settings: for control (test results against armyworm): mortality after 72 h

CCc1c(Cl)c(NCCc2ccc(Oc3ccc(C(F)(F)F)cc3)cc2)nc[n+]1CC(=O)c1ccc(Cl)cc1 [CK50, reference compound]
< 50%: inhibition at 25 ppm (rice blast; Pyricularia oryzae)
80%: pest or weed control at 400 µg/mL (corn rust; Zea mays, 168 h, read-out: control effect against corn rust (%), 400 mg/L, protectant activity)
0%: inhibition at 8.3 ppm (rice blast; Pyricularia oryzae) | pest or weed control at 6.25 µg/mL (corn rust; Zea mays, 168 h, read-out: control effect against corn rust (%), 6.25 mg/L, protectant activity) | pest or weed control at 25 µg/mL (corn rust; Zea mays, 168 h, read-out: control effect against corn rust (%), 25 mg/L, protectant activity) | pest or weed control at 100 µg/mL (corn rust; Zea mays, 168 h, read-out: control effect against corn rust (%), 100 mg/L, protectant activity)

FC(F)(F)c1ccc(Oc2ccc(CCNc3ncnc(CCl)c3Cl)cc2)nc1 [Compound I-2922]
100%: inhibition rate against rice blast (rice blast; 0.1 ppm) | inhibition rate against rice blast (rice blast; 0.3 ppm) | inhibition rate against rice blast (rice blast; 0.9 ppm) | inhibition rate against rice blast (rice blast; 2.8 ppm) | inhibition rate against rice blast (rice blast; 8.3 ppm) | protectant activity against corn rust in vivo (corn rust; 100 ppm) | protectant activity against corn rust in vivo (corn rust; 400 ppm)

CCc1nc(C)nc(NCCc2ccc(Oc3ncc(C(N)=O)cc3Cl)cc2)c1Cl [Compound I-6791]
100%: pest or weed control at 400 ppm (corn rust; Zea mays, 168 h)
80 to 99%: inhibition at 25 ppm (rice blast; Pyricularia oryzae) | pest or weed control at 100 ppm (corn rust; Zea mays, 168 h)

CCc1nc(C)nc(NCCc2ccc(Oc3ncccc3C(F)(F)F)cc2)c1Cl [Compound I-6793]
100%: pest or weed control at 100 ppm ([1]; 100 ppm) | pest or weed control at 600 ppm ([1]; 600 ppm) | pest or weed control at 400 ppm (corn rust; Zea mays, 168 h) | pest or weed control at 25 ppm (wheat powdery mildew; Triticum aestivum, 168 h, read-out: protectant activity against wheat powdery mildew in vivo, 25 ppm) | pest or weed control at 100 ppm (wheat powdery mildew; Triticum aestivum, 168 h, read-out: protectant activity against wheat powdery mildew in vivo, 100 ppm) | pest or weed control at 400 ppm (wheat powdery mildew; Triticum aestivum, 168 h)
80 to 99%: inhibition at 25 ppm (rice blast; Pyricularia oryzae) | pest or weed control at 10 ppm ([1]; 10 ppm) | pest or weed control at 400 ppm (cucumber downy mildew; Cucumis sativus, 168 h)

CCc1nc(C)nc(NCCc2ccc(Oc3ccc(C#N)cn3)cc2)c1Cl [Compound I-6795]
100%: pest or weed control at 600 ppm ([1]; 600 ppm) | pest or weed control at 100 ppm (carmine spider mite; 100 ppm) | pest or weed control at 600 ppm (carmine spider mite; 600 ppm) | pest or weed control at 400 ppm (corn rust; Zea mays, 168 h) | pest or weed control at 400 ppm (wheat powdery mildew; Triticum aestivum, 168 h)
80 to 99%: inhibition at 25 ppm (rice blast; Pyricularia oryzae)

CCc1nc(C)nc(NCCc2ccc(Oc3ccc(C(=O)OC)cn3)cc2)c1Cl [Compound I-6797]
80 to 99%: inhibition at 25 ppm (rice blast; Pyricularia oryzae) | pest or weed control at 10 ppm ([1]; 10 ppm) | pest or weed control at 400 ppm (wheat powdery mildew; Triticum aestivum, 168 h) | pest or weed control at 400 ppm (cucumber downy mildew; Cucumis sativus, 168 h)
100%: pest or weed control at 100 ppm ([1]; 100 ppm) | pest or weed control at 600 ppm ([1]; 600 ppm) | pest or weed control at 100 ppm (carmine spider mite; 100 ppm) | pest or weed control at 600 ppm (carmine spider mite; 600 ppm)

Cc1ncnc(NCCc2ccc(Oc3c(Cl)cc([N+](=O)[O-])cc3Cl)cc2)c1Cl [II-165]
100%: inhibition at 0.1 ppm (rice blast; Pyricularia oryzae, read-out: inhibition rate against rice blast, 0.1 ppm, in vitro) | inhibition at 0.3 ppm (rice blast; Pyricularia oryzae, read-out: inhibition rate against rice blast, 0.3 ppm, in vitro) | inhibition at 0.9 ppm (rice blast; Pyricularia oryzae, read-out: inhibition rate against rice blast, 0.9 ppm, in vitro) | inhibition at 2.8 ppm (rice blast; Pyricularia oryzae, read-out: inhibition rate against rice blast, 2.8 ppm, in vitro) | inhibition at 8.3 ppm (rice blast; Pyricularia oryzae) | inhibition at 25 ppm (rice blast; Pyricularia oryzae) | pest or weed control at 400 ppm (corn rust; Zea mays, 168 h)
80 to 99%: pest or weed control at 600 ppm (carmine spider mite; 600 ppm) | pest or weed control at 100 ppm (corn rust; Zea mays, 168 h)

CCc1ncnc(NCCc2ccc(Oc3ccc(OC)cc3)nc2)c1Cl [III-199]
64%: Insecticidal activity against armyworm (%) (armyworm; 10 mg/L)
87%: Insecticidal activity against carmine spider mite (% ) (carmine spider mite; 10 mg/L)
100%: control (test results against diamond back moth) (Diamond back moth; 600 ppm) | Insecticidal activity against armyworm (%) (armyworm; 100 mg/L) | Insecticidal activity against armyworm (%) (armyworm; 600 mg/L) | control (test results against armyworm) (armyworm; 100 ppm) | control (test results against armyworm) (armyworm; 600 ppm) | control (test results against green peach aphid) ([1]; 100 ppm) | control (test results against green peach aphid) ([1]; 600 ppm) | Insecticidal activity against carmine spider mite (% ) (carmine spider mite; 100 mg/L) | Insecticidal activity against carmine spider mite (% ) (carmine spider mite; 600 mg/L) | control against carmine spider mite (carmine spider mite; 100 ppm) | control against carmine spider mite (carmine spider mite; 600 ppm) | protectant activity against corn rust in vivo (corn rust; 400 ppm) | protectant activity against wheat powdery mildew in vivo (wheat powdery mildew) | protectant activity against cucumber downy mildew in vivo (cucumber downy mildew; 100 ppm) | protectant activity against cucumber downy mildew in vivo (cucumber downy mildew; 400 ppm)

CCc1ncnc(NCCc2ccc(Oc3cccc(C(F)(F)F)c3)nc2)c1Cl [III-201]
100%: control (test results against diamond back moth) (Diamond back moth; 600 ppm) | control (test results against armyworm) (armyworm; 600 ppm) | control (test results against green peach aphid) ([1]; 100 ppm) | control (test results against green peach aphid) ([1]; 600 ppm) | control against carmine spider mite (carmine spider mite; 600 ppm) | protectant activity against corn rust in vivo (corn rust; 100 ppm) | protectant activity against corn rust in vivo (corn rust; 400 ppm) | protectant activity against wheat powdery mildew in vivo (wheat powdery mildew) | control effect against cucumber downy mildew (%) (cucumber downy mildew; 25 mg/L) | control effect against cucumber downy mildew (%) (cucumber downy mildew; 50 mg/L) | control effect against cucumber downy mildew (%) (cucumber downy mildew; 100 mg/L) | control effect against cucumber downy mildew (%) (cucumber downy mildew; 400 mg/L) | protectant activity against cucumber downy mildew in vivo (cucumber downy mildew; 25 ppm) | protectant activity against cucumber downy mildew in vivo (cucumber downy mildew; 50 ppm) | protectant activity against cucumber downy mildew in vivo (cucumber downy mildew; 100 ppm) | protectant activity against cucumber downy mildew in vivo (cucumber downy mildew; 400 ppm)
98%: control effect against cucumber downy mildew (%) (cucumber downy mildew; 12.5 mg/L)

FC(F)c1ncnc(NCCc2ccc(Oc3ccccc3)nc2)c1Cl [III-541]
100%: control (test results against diamond back moth) (Diamond back moth; 600 ppm) | control (test results against armyworm) (armyworm; 600 ppm) | control (test results against green peach aphid) ([1]; 100 ppm) | control (test results against green peach aphid) ([1]; 600 ppm) | control against carmine spider mite (carmine spider mite; 600 ppm) | protectant activity against corn rust in vivo (corn rust; 400 ppm) | protectant activity against wheat powdery mildew in vivo (wheat powdery mildew) | control effect against cucumber downy mildew (%) (cucumber downy mildew; 6.25 mg/L) | control effect against cucumber downy mildew (%) (cucumber downy mildew; 12.5 mg/L) | control effect against cucumber downy mildew (%) (cucumber downy mildew; 25 mg/L) | control effect against cucumber downy mildew (%) (cucumber downy mildew; 50 mg/L) | control effect against cucumber downy mildew (%) (cucumber downy mildew; 100 mg/L) | control effect against cucumber downy mildew (%) (cucumber downy mildew; 400 mg/L) | protectant activity against cucumber downy mildew in vivo (cucumber downy mildew; 6.25 ppm) | protectant activity against cucumber downy mildew in vivo (cucumber downy mildew; 12.5 ppm) | protectant activity against cucumber downy mildew in vivo (cucumber downy mildew; 25 ppm) | protectant activity against cucumber downy mildew in vivo (cucumber downy mildew; 50 ppm) | protectant activity against cucumber downy mildew in vivo (cucumber downy mildew; 100 ppm) | protectant activity against cucumber downy mildew in vivo (cucumber downy mildew; 400 ppm)
95%: control effect against cucumber downy mildew (%) (cucumber downy mildew; 3.125 mg/L)

FC(F)c1ncnc(NCCc2ccc(Oc3ccc(Cl)cc3)nc2)c1Cl [III-547]
57%: Insecticidal activity against diamond back moth (%) (Diamond back moth; 10 mg/L)
95%: Insecticidal activity against armyworm (%) (armyworm; 10 mg/L)
100%: Insecticidal activity against diamond back moth (%) (Diamond back moth; 100 mg/L) | Insecticidal activity against diamond back moth (%) (Diamond back moth; 600 mg/L) | control (test results against diamond back moth) (Diamond back moth; 100 ppm) | control (test results against diamond back moth) (Diamond back moth; 600 ppm) | Insecticidal activity against armyworm (%) (armyworm; 100 mg/L) | Insecticidal activity against armyworm (%) (armyworm; 600 mg/L) | control (test results against armyworm) (armyworm; 100 ppm) | control (test results against armyworm) (armyworm; 600 ppm) | Insecticidal activity against peach aphid (%) ([1]; 10 mg/L) | Insecticidal activity against peach aphid (%) ([1]; 100 mg/L) | Insecticidal activity against peach aphid (%) ([1]; 600 mg/L) | control (test results against green peach aphid) ([1]; 10 ppm) | control (test results against green peach aphid) ([1]; 100 ppm) | control (test results against green peach aphid) ([1]; 600 ppm) | Insecticidal activity against carmine spider mite (% ) (carmine spider mite; 100 mg/L) | Insecticidal activity against carmine spider mite (% ) (carmine spider mite; 600 mg/L) | control against carmine spider mite (carmine spider mite; 100 ppm) | control against carmine spider mite (carmine spider mite; 600 ppm) | protectant activity against corn rust in vivo (corn rust; 400 ppm) | protectant activity against wheat powdery mildew in vivo (wheat powdery mildew) | control effect against cucumber downy mildew (%) (cucumber downy mildew; 25 mg/L) | control effect against cucumber downy mildew (%) (cucumber downy mildew; 50 mg/L) | control effect against cucumber downy mildew (%) (cucumber downy mildew; 100 mg/L) | control effect against cucumber downy mildew (%) (cucumber downy mildew; 400 mg/L) | protectant activity against cucumber downy mildew in vivo (cucumber downy mildew; 25 ppm) | protectant activity against cucumber downy mildew in vivo (cucumber downy mildew; 50 ppm) | protectant activity against cucumber downy mildew in vivo (cucumber downy mildew; 100 ppm) | protectant activity against cucumber downy mildew in vivo (cucumber downy mildew; 400 ppm)

FC(F)c1ncnc(NCCc2ccc(Oc3ccc(C(F)(F)F)cc3Cl)nc2)c1Cl [III-661]
100%: inhibition rate against rice blast (rice blast; 8.3 ppm) | control (test results against green peach aphid) ([1]; 100 ppm) | control (test results against green peach aphid) ([1]; 600 ppm) | protectant activity against corn rust in vivo (corn rust; 100 ppm) | protectant activity against corn rust in vivo (corn rust; 400 ppm)

Cc1cc(Cl)ccc1Oc1ccc(CCNc2ncnc(Cl)c2Cl)cn1 [III-2630]
80 to 99%: inhibition at 25 ppm (rice blast; Pyricularia oryzae) | pest or weed control at 50 ppm (cucumber downy mildew; Cucumis sativus, 168 h, read-out: protectant activity against cucumber downy mildew in vivo, 50 ppm) | pest or weed control at 100 ppm (cucumber downy mildew; Cucumis sativus, 168 h, read-out: protectant activity against cucumber downy mildew in vivo, 100 ppm)
100%: pest or weed control at 400 ppm (corn rust; Zea mays, 168 h) | pest or weed control at 400 ppm (cucumber downy mildew; Cucumis sativus, 168 h)
